What was measured:
[1] = biological target: T1, D1R (Homo sapiens, UniProt P21728); test: D1R-mediated GIRK channel activation assay in HEK293T cells (whole-cell electrophysiology); assay type: cell-based; conditions: % of photocurrent in the absence of LE300
T1 construct: expressed in transfected cells; host or cells: HEK293T (A1, A2); HEK293 (A26)
Procedure: All constructs were cloned into mammalian expression vectors. For the receptor mediated-GIRK activation assay, HEK293T cells were seeded onto 18 mm coverslips and transiently transfected overnight with Lipofectamine 2000 and the following constructs: a receptor, a variant of the membrane-anchor (M; 0.7 µg), GIRK1(F137S) (0.7 µg), and tdTomato (0.2 µg). […] D1R, D5R, or opto-D1R were cotransfected with Gαis13 (0.35 µg), D3R with GαoA (0.7 µg), and M1R or mGluR1 with Gαiq5. Transfected cells were used for electrophysiology, imaging, or flow cytometry experiments.
HEK293T cells were sparsely seeded and maintained in DMEM (Invitrogen) with 10% fetal bovine serum on poly-L-lysine-coated coverslips at 37° C. and 5% CO2. HEK293T cells were voltage clamped in whole-cell configuration 16-48 hours after transfection. […] GluK2 electrophysiology was performed in the presence of 0.3 mg/mL concanavalin A to prevent desensitization. […] Cells were voltage clamped to -60 or -80 mV using an Axopatch 200A (Molecular Devices) amplifier.
For all experiments, compounds were applied using a gravity-driven perfusion system and illumination was applied to the entire field of view using a Polychrome V monochromator (TILL Photonics) through a 20x objective (maximum 0.05 mW/mm^2 at 370 nm and 0.5 mW/mm^2 at 460 nm or 473 nm) or a DG4 (Sutter) through a 20x objective (maximum 0.06 mW/mm^2 at 370 nm and 0.6 mW/mm^2 at 445 nm). pClamp software was used for both data acquisition and control of illumination.
The selection criteria for electrophysiological experiments are that a cell (i) expresses the fluorescent protein transfection marker, and (ii) responds to agonist, indicating the presence of either receptor and GIRK or an LGIC. Cells were not excluded unless the recording was of poor quality (e.g., unstable baseline).
Data were analyzed using GraphPad Prism (GraphPad), Clampfit (Axon instruments), Origin (OriginLab), MATLAB, or ImageJ software. For dose-response curves, data were normalized to vehicle (0%) and DA (100%) and nonlinear regression analysis was performed using the sigmoidal dose-response function in GraphPad Prism. Statistical analyses were performed using GraphPad Prism. All values reported are mean ± S.E.M.
FIGS. 9A-9H. Functional properties of untethered P-D1ago. (A) Schematic representation of a D1R-mediated G protein-coupled inwardly rectifying potassium (GIRK) channel assay in HEK293T cells. Agonist-induced receptor activation results in the recruitment of a heterotrimeric G protein containing the chimeric Gα subunit (Gαis) followed by the release of Gβγ, which activates GIRK channels and enhances inward-current. […] (E) Schematic representation of a highly sensitive D1R-mediated cAMP accumulation assay in HEK293T cells. Agonist-induced D1R activation results in Gs/olfrecruitment followed by the binding of its Gα subunit to adenylate cyclase (AC), which enhances the conversion of ATP to cAMP. cAMP binds the bioluminescence resonance energy transfer 1 (BRET′)-based cAMP sensor CAMYEL^87, resulting in a conformational change in its Epac domain that increases the distance and decreases BRET^1 between the donor Renilla luciferase (Rluc) and the acceptor YFP. […] Optimization and characterization of the D1R MP

[2] = system: D1R and D5R; test: Open field test, bilateral dStr-infusion of SKF82958 in D1-Cre mice; assay type: in vivo
Procedure: FIGS. 21A-21K. […] (A) An infusion of SKF82958 directly to the dorsal striatum (dStr) activates D1R and D5R in various cell types of this brain area and could diffuse into other brain areas. (B) Time course of the effect of a bilateral dStr-infusion of SKF82958 (400 nL per hemisphere) on the locomotion of D1-Cre mice in an open field. (C) Average velocity in the last 10 minutes of the open field test. one-way ANOVA, F = 14.3, Bonferroni, ^∗∗p < 0.01, ^∗∗∗p < 0.001. n = 5 mice per condition. (D) Time to maximum locomotion with SKF82958 or MP-D1ago. unpaired two-sided t-test, ^∗∗∗∗p < 0.0001. n = 5 for SKF82958, n = 7 mice for MP-D1ago. (E) Example movement dynamics of a mouse treated with vehicle or 100 µg SKF82958. Shown for SKF82958-treated mice is the (F) average percent of the time in motion, (G) average initiations per second, (H) average movement bout duration, and (I) the average maximum movement bout velocity. […] Bonferroni, ^∗p < 0.05, ^∗∗p < 0.01. n = 5 mice. (J) Representative coronal brain slice from a mouse infused with SKF82958. grey bar = 1 mm. blue = DAPI staining. (K) Summary of cannula locations for individual mice.

T1 sequence (P21728 whole entry): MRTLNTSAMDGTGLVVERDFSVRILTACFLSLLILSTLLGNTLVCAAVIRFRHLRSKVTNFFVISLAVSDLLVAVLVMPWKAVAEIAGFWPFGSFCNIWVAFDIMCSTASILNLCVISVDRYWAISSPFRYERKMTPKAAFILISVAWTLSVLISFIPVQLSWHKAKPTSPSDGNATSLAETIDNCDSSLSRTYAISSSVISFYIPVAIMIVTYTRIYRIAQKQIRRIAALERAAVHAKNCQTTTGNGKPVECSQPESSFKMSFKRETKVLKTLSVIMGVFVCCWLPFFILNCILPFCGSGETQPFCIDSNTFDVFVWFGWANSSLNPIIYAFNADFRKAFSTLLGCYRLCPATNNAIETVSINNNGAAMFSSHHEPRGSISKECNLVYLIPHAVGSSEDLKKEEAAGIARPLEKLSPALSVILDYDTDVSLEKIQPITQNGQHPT

SMILES | photoactivation of D1R by P-D1ago tethered to the M in the presence of LE300 [1] [%] | duration of the movement bouts [2] | movement initiation [2] | percentage of the time in motion [2] | locomotion in an open field ([2]; 400 nL per hemisphere)
CN1CCc2ccccc2Cc2[nH]c3ccccc3c2CC1 [LE300, reference compound] | 3.3 ± 3.3 | – | – | – | –
C=CCN1CCc2c(cc(O)c(O)c2Cl)C(c2ccccc2)C1 (centres unmarked) [SKF82958] | – | increased | increased | increased the percentage of the time that the mice were in motion | enhanced locomotion

From patent US20230173090A1, “COMPOSITIONS AND METHODS FOR MODULATING DOPAMINE RECEPTOR ACTIVITY” (The Regents of the University of California, priority 2020, published 2023)
